Source: patent publication US11427548B2 (Arvinas Operations, Inc., priority 2015, dated 2022)
Like-named read-outs stand apart in the source and are kept apart here.

Molecular target: T1, Androgen Receptor (Homo sapiens, UniProt P10275)
T1 construct: endogenous in cells; host or cells: VCaP cells
T1 sequence (P10275 1-920): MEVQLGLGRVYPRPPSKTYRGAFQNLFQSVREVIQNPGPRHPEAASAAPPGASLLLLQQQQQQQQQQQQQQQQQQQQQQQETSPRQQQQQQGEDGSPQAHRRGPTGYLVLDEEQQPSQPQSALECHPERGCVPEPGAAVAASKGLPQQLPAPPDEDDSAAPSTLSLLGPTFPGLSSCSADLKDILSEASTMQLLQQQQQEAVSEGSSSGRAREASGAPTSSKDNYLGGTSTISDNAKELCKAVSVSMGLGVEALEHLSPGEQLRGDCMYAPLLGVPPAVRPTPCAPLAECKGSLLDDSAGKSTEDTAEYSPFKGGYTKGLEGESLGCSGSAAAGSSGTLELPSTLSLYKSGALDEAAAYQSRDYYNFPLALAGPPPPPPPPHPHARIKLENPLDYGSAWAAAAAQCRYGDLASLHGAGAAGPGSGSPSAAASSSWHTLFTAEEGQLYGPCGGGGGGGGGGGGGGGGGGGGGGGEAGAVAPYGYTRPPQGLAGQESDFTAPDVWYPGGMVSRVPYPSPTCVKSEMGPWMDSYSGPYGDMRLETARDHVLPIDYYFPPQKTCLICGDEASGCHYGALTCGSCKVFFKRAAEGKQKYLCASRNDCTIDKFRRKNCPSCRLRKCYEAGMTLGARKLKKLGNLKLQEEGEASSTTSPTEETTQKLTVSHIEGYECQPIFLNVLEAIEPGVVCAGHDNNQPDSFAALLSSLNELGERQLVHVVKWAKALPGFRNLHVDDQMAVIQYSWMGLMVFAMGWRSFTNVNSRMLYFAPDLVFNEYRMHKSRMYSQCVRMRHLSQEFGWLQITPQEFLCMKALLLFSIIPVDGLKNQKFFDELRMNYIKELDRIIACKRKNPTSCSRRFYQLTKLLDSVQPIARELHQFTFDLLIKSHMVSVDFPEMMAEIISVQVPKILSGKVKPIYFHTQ
Test: Androgen Receptor ELISA assay (PathScan AR ELISA) in VCaP cells: AR degradation, Dmax and DC50
Type: cell-based
Details: for DC50: read-out: VCaP DC50; for Dmax: VCaP
Description: 1. Androgen Receptor ELISA Assay.
The protocols used with VCaP cells are described below. The androgen receptor ELISA assay was performed using PathScan AR ELISA (Cell Signaling Catalog #12850) according to the following assay steps:
VCaP cells are seeded at 30,000 cells/well at a volume of 200 μL/well in VCaP assay medium [Phenol red free RPMI (Gibco Cat #11835-030); 5% Charcoal Stripped (Dextran treated) FBS (Omega Scientific, Cat #FB-04); Pen/Strep Life Technologies (Gibco Cat #: 10378-016); 0.1 nM R1881 (Sigma, Cat #R0908) is added upon the start of the assay, not during initial plating of the cells) in Corning 3904 plates. The cells are grown for a minimum of 3 days.
First, cells are dosed with compounds diluted in 0.1% DMSO—use a polypropylene plate according to the following protocol: (1)(i) make 1000× stock plate in DMSO; (ii) 20 mM stock diluted 1/6.7 with DMSO (5 μL+28.3 μL DMSO)=3 mM into row H; (iii) perform serial dilutions in ½ log doses (10 μL of PROTAC+20 μL DMSO) from row H towards row B. Reserve row A for DMSO; (iv) 7 doses total (final concentration in this 1000× plate will be 3 mM, 1 mM, 333 μM, 111 μM, etc). (2)(i) Make 10× stock plate in media; (ii) transfer 2.5 μL of the 1000× stock to a new 10× stock plate (use 12 channel pipet, start at A (DMSO control) work thru H. When 247.5 μL of media is added to this plate, it will serve as a 10× stock; (iii) make media+1 nM R1881 for making 10× stock plate; (iv) add 247.5 μL of media with 1 nM R1881 to each well of the 10× stock plate, mix.
Then 22 μL of 10× stock is added to cells and incubated for 24 h. 1× Cell Signaling Cell lysis buffer is made (Catalogue #9803; comes with the kit)—prepare for 50 μL/well. Keep on ice. Media is aspirated, and 50 μL 1× cell lysis buffer/well is added. The cells are placed on ice for 10 minutes. The solution is mixed and transferred to PCR plate, and centrifuged at 4C for 10 minutes at 4000 rpm.
5 μL is transferred to fresh plate (use immediately or freeze −80 C); 115 μL ELISA Dilutant is added (0.15 ug/ml-0.075 ug/ml; comes with the PathScan ELISA).
Add 100 μL/well AR Elisa; cover and shake, 37 C for 2 hrs; dump, tap, wash 4×200 μL ELISA wash buffer; add 100 μL/well mouse AR detection Ab; cover and shake, 37 C for 1 hr; dump, tap, wash 4×200 μL ELISA wash buffer; add 100 μL/well anti-mouse—HRP conjugated Ab (comes with the kit); cover and shake, 37 C for 30 min; allow TMB reagent to come to room temperature; dump, tap, wash 4×200 μL Elisa wash buffer; tap; add 100 μL TMB, shake 5 min—while watching color. Add the stop reagent when light blue color develops. Add 100 μL Stop solution; shake and read at 450 nm.

[1] = VCaP cells, Table 36, read-out: VCaP Dmax (%)

SMILES | DC50 (VCaP cells, Table 36) | Dmax [1] | Dmax (read-out: VCaP Dmax (%)) | also measured
Cc1ncsc1-c1ccc([C@H](C)NC(=O)[C@@H]2C[C@@H](O)CN2C(=O)[C@@H](NC(=O)[C@H](C)OCCN2CCN(c3ccc(C(=O)N[C@H]4C(C)(C)[C@H](Oc5ccc(C#N)c(Cl)c5)C4(C)C)cc3)CC2)C(C)(C)C)cc1 [Example 664, (2S,4R)-1-((S)-2-((S)-2-(2-(4-(4-(((1r,3r)-3-(3-chloro-4-cyanophenoxy)-2,2,4,4-tetramethylcyclobutyl)carbamoyl)phenyl)piper-azin-1-yl)ethoxy)propanamido)-3,3-dimethylbutanoyl)-4-hydroxy-N-((S)-1-(4-(4-methylthiazol-5-yl)phenyl)ethyl)pyrrolidine-2-carboxamide] | < 50 nM |  |  | Dmax (read-out: VCaP Dmax (%), VCaP cells, Table 36): 51 to 70%
Cc1ncsc1-c1ccc([C@H](C)NC(=O)[C@@H]2C[C@@H](O)CN2C(=O)[C@@H](NC(=O)CN2CCN(CCC3CCN(c4ccc(C(=O)N[C@H]5C(C)(C)[C@H](Oc6ccc(C#N)c(Cl)c6)C5(C)C)cn4)CC3)CC2)C(C)(C)C)cc1 [Example 833, N-((1r,3r)-3-(3-chloro-4-cyanophenoxy)-2,2,4,4-tetramethylcyclobutyl)-6-(4-(2-(4-(2-(((S)-1-((2S,4R)-4-hydroxy-2-(((S)-1-(4-(4-methylthiazol-5-yl)phenyl)ethyl)carbamoyl)pyrrolidin-1-yl)-3,3-dimethyl-1-oxobutan-2-yl)amino)-2-oxoethyl)piperazin-1-yl)ethyl)piperidin-1-yl)nicotinamide] | < 50 nM | > 71% |  | 
Cc1ncsc1-c1ccc([C@H](C)NC(=O)[C@@H]2C[C@@H](OC(=O)CCC(=O)O)CN2C(=O)[C@@H](NC(=O)COCCN2CCN(c3ccc(C(=O)N[C@H]4C(C)(C)[C@H](Oc5ccc(C#N)c(Cl)c5)C4(C)C)cn3)CC2)C(C)(C)C)cc1 [Example 862, 4-(((3R,5S)-1-((S)-2-(2-(2-(4-(5-(((1r,3r)-3-(3-chloro-4-cyanophenoxy)-2,2,4,4-tetramethylcyclobutyl)carbamoyl)pyridin-2-yl)piperazin-1-yl)ethoxy)acetamido)-3,3-dimethylbutanoyl)-5-(((S)-1-(4-(4-methylthiazol-5-yl)phenyl)ethyl)carbamoyl)pyrrolidin-3-yl)oxy)-4-oxobutanoic acid] | < 50 nM | > 71% |  | 
Cc1ncsc1-c1ccc([C@@H](NC(=O)[C@@H]2C[C@@H](O)CN2C(=O)[C@@H](NC(=O)CN2CCN(CCCc3ccc(C(=O)N[C@H]4C(C)(C)[C@H](Oc5ccc(C#N)c(C(F)(F)F)c5)C4(C)C)cc3)CC2)C(C)(C)C)C2COC2)cc1 [Example 713, (2S,4R)-1-((S)-2-(2-(4-(3-(4-(((1r,3r)-3-(4-cyano-3-(trifluoromethyl)phenoxy)-2,2,4,4-tetramethylcyclobutyl)carbamoyl)phenyl)propyl)piperazin-1-yl)acetamido)-3,3-dimethylbutanoyl)-4-hydroxy-N-((S)-(4-(4-methylthiazol-5-yl)phenyl)(oxetan-3-yl)methyl)pyrrolidine-2-carboxamide] | < 50 nM |  | < 25% | 
CC(C)(C)[C@H](NC(=O)COCCCCCNc1ccc(C(=O)N[C@H]2C(C)(C)[C@H](Oc3ccc(C#N)c(Cl)c3)C2(C)C)cc1)C(=O)N1C[C@H](O)C[C@H]1C(=O)NCc1ccc(-c2nnn[nH]2)cc1 [Example 518] |  |  |  | DC50 (VCaP cells, Table 35): > 501 nM; Dmax (read-out: VCaP Dmax (%), VCaP cells, Table 35): < 25%
CC(C)(C)[C@H](NC(=O)COCCCOCCCCOc1ccc(N2C(=S)N(c3ccc(C#N)c(C(F)(F)F)c3)C(=O)C2(C)C)cc1)C(=O)N1C[C@H](O)C[C@H]1C(=O)NCc1ccc(-c2ocnc2F)cc1 [Example 370] |  |  | 26 to 50% | DC50 (VCaP cells, Table 34): < 50 nM
Cc1ncsc1-c1ccc(CNC(=O)[C@@H]2C[C@@H](O)CN2C(=O)[C@@H](NC(=O)COC/C=C\COCCCCOc2ccc(N3C(=S)N(c4ccc(C#N)c(C(F)(F)F)c4)C(=O)C3(C)C)cc2)C(C)(C)C)cc1 [Example 325] |  |  | 26 to 50% | DC50 (VCaP cells, Table 34): < 50 nM
CC(C)(C)[C@H](NC(=O)COCCCCNc1ccc(C(=O)N[C@H]2C(C)(C)[C@H](Oc3ccc(C#N)c(Cl)c3)C2(C)C)cc1)C(=O)N1C[C@H](O)C[C@H]1C(=O)NCc1ccc(C#N)cc1 [Example 547] |  |  |  | DC50 (VCaP cells, Table 35): < 50 nM; Dmax (VCaP cells, Table 35, read-out: VCaP Dmax (%)): 51 to 70%
Cc1ncsc1-c1ccc([C@H](C)NC(=O)[C@@H]2C[C@@H](O)CN2C(=O)[C@@H](NC(=O)CN2CC(N3CCN(c4ccc(C(=O)N[C@H]5C(C)(C)[C@H](Oc6ccc(C#N)c(Cl)c6)C5(C)C)cn4)CC3)C2)C(C)(C)C)cc1 [Example 794, N-((1r,3r)-3-(3-chloro-4-cyanophenoxy)-2,2,4,4-tetramethylcyclobutyl)-6-(4-(1-(2-(((S)-1-((2S,4R)-4-hydroxy-2-(((S)-1-(4-(4-methylthiazol-5-yl)phenyl)ethyl)carbamoyl)pyrrolidin-1-yl)-3,3-dimethyl-1-oxobutan-2-yl)amino)-2-oxoethyl)azetidin-3-yl)piperazin-1-yl)nicotinamide] | < 50 nM | 51 to 70% |  | 
Cc1ncsc1-c1ccc([C@H](C)NC(=O)[C@@H]2C[C@@H](O)CN2C(=O)[C@@H](NC(=O)CO[C@H](C)CN2CCN(c3ccc(C(=O)N[C@H]4C(C)(C)[C@H](Oc5ccc(C#N)c(Cl)c5)C4(C)C)cc3)CC2)C(C)(C)C)cc1 [Example 634, (2S,4R)-1-((S)-2-(2-(((R)-1-(4-(4-(((1r,3R)-3-(3-chloro-4-cyanophenoxy)-2,2,4,4-tetramethylcyclobutyl)carbamoyl)phenyl)piper-azin-1-yl)propan-2-yl)oxy)acetamido)-3,3-dimethylbutanoyl)-4-hydroxy-N-((S)-1-(4-(4-methylthiazol-5-yl)phenyl)ethyl)pyrrolidine-2-carboxamide] | < 50 nM | > 71% |  | 
Cc1ncsc1-c1ccc(CNC(=O)[C@@H]2C[C@@H](O)CN2C(=O)[C@@H](NC(=O)COCCCCOc2ccc(-c3ccc(N4C(=S)N(c5ccc(C#N)c(C(F)(F)F)c5)C(=O)C4(C)C)cc3)c(F)c2)C(C)(C)C)cc1 [Example 149, (2S,4R)-1-[(2S)-2-(2-{4-[4-(4-{3-[4-cyano-3-(trifluoromethyl)phenyl]-5,5-dimethyl-4-oxo-2-sulfanylideneimidazolidin-1-yl}phenyl)-3-fluorophenoxy]butoxy}acetamido)-3,3-dimethylbutanoyl]-4-hydroxy-N-{[4-(4-methyl-1,3-thiazol-5-yl)phenyl]methyl}pyrrolidine-2-carboxamide] |  |  | > 71% | DC50 (concentration that caused 50% Androgen Receptor degradation, VCaP cells (Table 32)): < 50 nM
